From US20070128217A1 (priority 2003, published 2007)

Assays:
[1] = system: control sera (pooled serum of ten healthy LUMC hospital workers; commercial negative donor pooled serum from the Dutch bloodbank); assay type: binding, human; set-up: Binding of Control serum LUMC to linear peptides / Binding of Control serum Blood-bank to linear peptides / Binding of Control serum LUMC to looped peptides / Binding of Control Serum Blood-Bank to Looped peptides / Binding of Control serum LUMC to linear peptides of the protein M of SARS-CoV Urbani / Binding of Control serum Blood-bank to linear peptides of the protein M of SARS-CoV Urbani / Binding of Control serum LUMC to looped peptides of the protein M of SARS-CoV Urbani / Binding of Control Serum Blood-Bank to Looped peptides of the protein M of SARS-CoV Urbani: unit not given here
[2] = system: antibodies in sera from SARS patients (sera 1a, 1b, 2, 6, 37, 62, London, SARS-yellow, SARS-green); assay type: binding, human; set-up: Binding of serum 6 to linear peptides of protein X1 of SARS-CoV Urbani / Binding of serum 37 to linear peptides of protein X1 of SARS-CoV Urbani / Binding of serum 6 to looped/cyclic peptide (PEPSCAN-ELISA) / Binding of serum 37 to looped/cyclic peptide (PEPSCAN-ELISA) / Binding of serum 37 to looped/cyclic peptides of protein X1 of SARS-CoV Urbani / Binding of serum 6 to linear peptides of protein X2 / Binding of serum 37 to linear peptides of protein X2 / Binding of serum 37 to looped/cyclic peptides of protein X2 of SARS-CoV Urbani / Binding of serum 6 to linear peptides of protein M of SARS-CoV Urbani / Binding of serum 37 to linear peptides of protein M of SARS-CoV Urbani / Binding of serum 6 to looped/cyclic peptides of protein M of SARS-CoV Urbani / Binding of serum 37 to looped/cyclic peptides of protein M of SARS-CoV Urbani / Binding of serum 6 to linear peptides of protein X3 of SARS-CoV Urbani / Binding of serum 37 to linear peptides of protein X3 of SARS-CoV Urbani / Binding of serum 37 to looped/cyclic peptides of protein X3 of SARS-CoV Urbani / Binding of serum 6 to linear peptides of protein X4 of SARS-CoV Urbani / Binding of serum 37 to linear peptides of protein X4 of SARS-CoV Urbani / Binding of serum 37 to looped/cyclic peptides of protein X4 of SARS-CoV Urbani / Binding of serum 6 to linear peptides of protein X5 of SARS-CoV Urbani / Binding of serum 37 to linear peptides of protein X5 of SARS-CoV Urbani / Binding of serum 37 to looped/cyclic peptides of protein X5 of SARS-CoV Urbani / Binding of serum 6 to linear peptides of protein N of SARS-CoV Urbani / Binding of serum 37 to linear peptides of protein N of SARS-CoV Urbani / Binding of serum 6 to linear peptide (PEPSCAN-ELISA) / Binding of serum 1a to looped/cyclic peptides of protein N of SARS-CoV Urbani / Binding of serum 1b to looped/cyclic peptides of protein N of SARS-CoV Urbani / Binding of serum 2 to looped/cyclic peptides of protein N of SARS-CoV Urbani / Binding of serum 6 to looped/cyclic peptides of protein N of SARS-CoV Urbani / Binding of serum 37 to looped/cyclic peptides of protein N of SARS-CoV Urbani / Binding of serum 62 to looped/cyclic peptides of protein N of SARS-CoV Urbani / Binding of serum London to looped/cyclic peptides of protein N of SARS-CoV Urbani / Binding of serum SARS-green to looped/cyclic peptides of protein N of SARS-CoV Urbani: unit not given here
[3] = system: rabbit serum obtained by immunizing a rabbit with the SARS-CoV strain Frankfurt 1; assay type: binding; set-up: Binding of a rabbit serum to linear peptides / Binding of a rabbit serum to looped peptides / Rabbit serum linear peptides / Rabbit serum looped peptides / Binding of a rabbit serum to linear peptides of protein N of SARS-CoV Urbani (Rabbit serum linear peptides) / Binding of a rabbit serum to looped/cyclic peptides of protein N of SARS-CoV Urbani (Rabbit serum looped peptides): unit not given here
[4] = system: recombinant human anti-SARS-CoV antibody 03-018; assay type: binding; set-up: Binding of antibody 03-018 to linear peptides of the N protein of SARS-CoV Urbani / Binding of antibody 03-018 to looped/cyclic peptides of the N protein of SARS-CoV Urbani: unit not given here

Sequence: GAIKLDDKDPQFKDN
- Control Serum Blood-Bank Looped peptides [1]: 0.6
- Control serum Blood-bank linear peptides [1]: 0.7
- Control serum LUMC linear peptides [1]: 0.7
- Control serum LUMC looped peptides [1]: 0.5
- Binding of serum 1a to linear peptides of protein N of SARS-CoV Urbani [2]: 0.2
- Binding of serum 1a to looped/cyclic peptides of protein N of SARS-CoV Urbani [2]: 0.3
- Binding of serum 1b to linear peptides of protein N of SARS-CoV Urbani [2]: 0.1
- Binding of serum 1b to looped/cyclic peptides of protein N of SARS-CoV Urbani [2]: 0.2
- Binding of serum 2 to linear peptides of protein N of SARS-CoV Urbani [2]: 0.2
- Binding of serum 2 to looped/cyclic peptides of protein N of SARS-CoV Urbani [2]: 0.4
- Binding of serum 6 to linear peptides of protein N of SARS-CoV Urbani [2]: 0.2
- Binding of serum 6 to looped/cyclic peptides of protein N of SARS-CoV Urbani [2]: 0.2
- Binding of serum 37 to linear peptides of protein N of SARS-CoV Urbani [2]: 0.7
- Binding of serum 37 to looped/cyclic peptides of protein N of SARS-CoV Urbani [2]: 0.5
- Binding of serum 62 to linear peptides of protein N of SARS-CoV Urbani [2]: 0.9
- Binding of serum 62 to looped/cyclic peptides of protein N of SARS-CoV Urbani [2]: 0.5
- Binding of serum London to linear peptides of protein N of SARS-CoV Urbani [2]: 0.6
- Binding of serum London to looped/cyclic peptides of protein N of SARS-CoV Urbani [2]: 0.4
- Binding of serum SARS-green to linear peptides of protein N of SARS-CoV Urbani [2]: 0.5
- Binding of serum SARS-green to looped/cyclic peptides of protein N of SARS-CoV Urbani [2]: 0.8
- Binding of serum SARS-yellow to linear peptides of protein N of SARS-CoV Urbani [2]: 0.7
- Binding of serum SARS-yellow to looped/cyclic peptides of protein N of SARS-CoV Urbani [2]: 0.5
- Binding of a rabbit serum to linear peptides of protein N of SARS-CoV Urbani (Rabbit serum linear peptides) [3]: 0.1
- Binding of a rabbit serum to looped/cyclic peptides of protein N of SARS-CoV Urbani (Rabbit serum looped peptides) [3]: 0.3
- Binding of antibody 03-018 to linear peptides of the N protein of SARS-CoV Urbani [4]: 0.1
- Binding of antibody 03-018 to looped/cyclic peptides of the N protein of SARS-CoV Urbani [4]: 0.2

Sequence: GANKEGIVWVATEGA
- Binding of Control Serum Blood-Bank to Looped peptides [1]: 0.4
- Binding of Control serum Blood-bank to linear peptides [1]: 0.5
- Binding of Control serum LUMC to linear peptides [1]: 0.5
- Binding of Control serum LUMC to looped peptides [1]: 0.5
- Binding of serum 1a to linear peptides of protein N of SARS-CoV Urbani [2]: 0.2
- Binding of serum 1a to looped/cyclic peptides of protein N of SARS-CoV Urbani [2]: 0.2
- Binding of serum 1b to linear peptides of protein N of SARS-CoV Urbani [2]: 0.1
- Binding of serum 1b to looped/cyclic peptides of protein N of SARS-CoV Urbani [2]: 0.1
- Binding of serum 2 to linear peptides of protein N of SARS-CoV Urbani [2]: 0.2
- Binding of serum 2 to looped/cyclic peptides of protein N of SARS-CoV Urbani [2]: 0.2
- Binding of serum 6 to linear peptides of protein N of SARS-CoV Urbani [2]: 0.1
- Binding of serum 6 to looped/cyclic peptides of protein N of SARS-CoV Urbani [2]: 0.1
- Binding of serum 37 to linear peptides of protein N of SARS-CoV Urbani [2]: 0.7
- Binding of serum 37 to looped/cyclic peptides of protein N of SARS-CoV Urbani [2]: 0.5
- Binding of serum 62 to linear peptides of protein N of SARS-CoV Urbani [2]: 0.6
- Binding of serum 62 to looped/cyclic peptides of protein N of SARS-CoV Urbani [2]: 0.3
- Binding of serum London to linear peptides of protein N of SARS-CoV Urbani [2]: 0.4
- Binding of serum London to looped/cyclic peptides of protein N of SARS-CoV Urbani [2]: 0.3
- Binding of serum SARS-green to linear peptides of protein N of SARS-CoV Urbani [2]: 0.2
- Binding of serum SARS-green to looped/cyclic peptides of protein N of SARS-CoV Urbani [2]: 0.2
- Binding of serum SARS-yellow to linear peptides of protein N of SARS-CoV Urbani [2]: 0.6
- Binding of serum SARS-yellow to looped/cyclic peptides of protein N of SARS-CoV Urbani [2]: 0.4
- Binding of a rabbit serum to linear peptides of protein N of SARS-CoV Urbani (Rabbit serum linear peptides) [3]: 0.2
- Binding of a rabbit serum to looped/cyclic peptides of protein N of SARS-CoV Urbani (Rabbit serum looped peptides) [3]: 0.5
- Binding of antibody 03-018 to linear peptides of the N protein of SARS-CoV Urbani [4]: 0.1
- Binding of antibody 03-018 to looped/cyclic peptides of the N protein of SARS-CoV Urbani [4]: 0.2

Sequence: GARPKQRRPQGLPNN
- Binding of Control Serum Blood-Bank to Looped peptides [1]: 0.5
- Binding of Control serum Blood-bank to linear peptides [1]: 0.7
- Binding of Control serum LUMC to linear peptides [1]: 0.7
- Binding of Control serum LUMC to looped peptides [1]: 0.6
- Binding of serum 1a to linear peptides of protein N of SARS-CoV Urbani [2]: 0.2
- Binding of serum 1a to looped/cyclic peptides of protein N of SARS-CoV Urbani [2]: 0.3
- Binding of serum 1b to linear peptides of protein N of SARS-CoV Urbani [2]: 0.1
- Binding of serum 1b to looped/cyclic peptides of protein N of SARS-CoV Urbani [2]: 0.1
- Binding of serum 2 to linear peptides of protein N of SARS-CoV Urbani [2]: 0.2
- Binding of serum 2 to looped/cyclic peptides of protein N of SARS-CoV Urbani [2]: 0.4
- Binding of serum 6 to linear peptides of protein N of SARS-CoV Urbani [2]: 0.1
- Binding of serum 6 to looped/cyclic peptides of protein N of SARS-CoV Urbani [2]: 0.3
- Binding of serum 37 to linear peptides of protein N of SARS-CoV Urbani [2]: 0.4
- Binding of serum 37 to looped/cyclic peptides of protein N of SARS-CoV Urbani [2]: 0.4
- Binding of serum 62 to linear peptides of protein N of SARS-CoV Urbani [2]: 0.6
- Binding of serum 62 to looped/cyclic peptides of protein N of SARS-CoV Urbani [2]: 0.5
- Binding of serum London to linear peptides of protein N of SARS-CoV Urbani [2]: 0.5
- Binding of serum London to looped/cyclic peptides of protein N of SARS-CoV Urbani [2]: 0.4
- Binding of serum SARS-green to linear peptides of protein N of SARS-CoV Urbani [2]: 0.3
- Binding of serum SARS-green to looped/cyclic peptides of protein N of SARS-CoV Urbani [2]: 0.4
- Binding of serum SARS-yellow to linear peptides of protein N of SARS-CoV Urbani [2]: 0.6
- Binding of serum SARS-yellow to looped/cyclic peptides of protein N of SARS-CoV Urbani [2]: 0.2
- Binding of a rabbit serum to linear peptides of protein N of SARS-CoV Urbani (Rabbit serum linear peptides) [3]: 0.1
- Binding of a rabbit serum to looped/cyclic peptides of protein N of SARS-CoV Urbani (Rabbit serum looped peptides) [3]: 0.2
- Binding of antibody 03-018 to linear peptides of the N protein of SARS-CoV Urbani [4]: 0.1
- Binding of antibody 03-018 to looped/cyclic peptides of the N protein of SARS-CoV Urbani [4]: 0.2
